System: strain AQP096
Test: Induction of the carotenoid biosynthetic pathway using menadione, HPLC carotenoid analysis
Assay type: cell-based, Algibacter sp. AQP096
Method: On the HPLC using a reverse phase Gemini C-18 250×4.6 mm column, 10 μl of pigment sample was eluted with a linear gradient from 10% v/v Acetone in Water: 100% Acetone (30:70) to 10% v/v Acetone in Water:100% Acetone (5:95) for 10 min followed with a 6 minute run of 10% v/v Acetone in Water:100% Acetone (5:95) before returning to the start conditions of 10% v/v Acetone in Water: 100% Acetone (30:70) with a 1 min linear gradient and a two minute run of 10% v/v Acetone in Water:100% Acetone (30:70) at a flow rate of 1.3 ml/min. Detection was at 450 nm. Menadione at a concentration of 0.100 mg/ml was added to a 24 hr old culture of AQP096 cultured in marine broth. This culture was further incubated for 4 days on the orbital shaker at 220 rpm […]. After 5 days of incubation, cultures were centrifuged (4,500 rpm, 20 min) and the pigments analysed for carotenoid content by HPLC (See FIGS. 4a and 4b).

CC1=CC(=O)c2ccccc2C1=O [menadione]
induced production of astaxanthin (menadione 0.100 mg/ml): ~12% | induced production of beta carotene (menadione 0.100 mg/ml): about 10% | induced production of beta-cryptoxanthin (menadione 0.100 mg/ml): ~8% | induced production of canthaxanthin (menadione 0.100 mg/ml): ~12% | induced production of lycopene (menadione 0.100 mg/ml): ~6% | induced production of other carotenoids such as adonirubin and 3-hydroxyechinenone (menadione 0.100 mg/ml): ~2% | effect on carotenoid production (menadione 0.100 mg/ml added to 24 hr old culture in marine broth, HPLC): induced the production of all carotenoids associated with the standard carotenoid biosynthetic pathway | amount of zeaxanthin produced by AQP096 (menadione 0.100 mg/ml, 98% under standard growth conditions): around 60%
